Structures are written as SMILES.

Holding throughout (assay type): cell-based
Assay [1] concerns Rhodococcus sp. FZ4 nitrile hydratase. Here is the method:
(§1) Nitrile hydratase activity was determined by incubating a reaction mixture comprising 3-cyanopyridine (1.0 M; 1.0 ml), potassium phosphate buffer (0.1 M, pH 7.0; 0.5 ml) and cell suspension (0.5 ml) with stirring at 20° C. for 5 min. The reaction was stopped by adding HCI (5 M; 0.1 ml). After filtration (0.2 μm filter) of the reaction mixture, the amount of nicotinamide produced was determined by means of HPLC (Waters Spherisorb 5 μ ODS2 (4.6×150 mm); KH2P04/H3P04 (10 mM; pH 2.8)/acetonitrile=9:1 (v/v); 1 ml/min; 230 nm). The total activity is expressed as μmol of nicotinamide produced/ (min×ml) and the specific activity is expressed as μmol of nicotinamide produced/(min×ml×OD610 nm).
(§2) The preculture medium of Table 2 was inoculated with strain Rhodococcus sp. FZ4 (DSM 13597), followed by incubation with shaking at 28° C. for 1 to 2 days. The preculture was transferred into the culture medium of Table 5, which contained different inducers, and cultured with shaking at 28° C. for 3 days. Nitrile hydratase activity was determined according to Example 1. Rhodococcus sp.

In another assay the test system is Rhodococcus sp. FZ4. Here is the method:
as §2

Assay [2] deals with Rhodococcus sp. FZ4 nitrile hydratase. Here is the method:
as §1
(§3) A cell suspension was incubated at different nicotinamide concentrations in the range from 0 to 20% (w/v) at 20° C. for 24 h. The cells were removed, washed and resuspended in potassium phosphate buffer (0.1 M; pH 7.0).
(§4) The influence of nicotinamide concentration on the nitrile hydratase activities of Rhodococcus sp. FZ4, Rhodococcus sp. GF270, Amycolatopsis sp. NA40 and Rhodococcus rhodochrous J1 was determined according to Example 9 using the respective microorganism and the nicotinamide concentration indicated in Table 11.
This is another data set of the same source.

Assay [3] concerns Rhodococcus sp. GF270 nitrile hydratase. Here is the method:
as §1, §3, §4

With `NC(=O)c1cccnc1` [Nicotinamide], in assay [1], the Specific activity is reported as 1.39 μmol/(min × ml × OD610 nm) and the Total activity is 4.94 µmol/min/mL. For the same compound, the Growth with Rhodococcus sp. FZ4 was found to be 3.55 OD610 nm. Besides, in assay [2], the Relative activity amounted to 100% and the “nitrile hydratase activity after incubation with nicotinamide” value is listed as “corresponded approximately to the original nitrile hydratase activity”. For the same compound, in assay [3], the Relative activity came out at 100%.

Source of the values: patent US7838271B2, “Microbiological method for producing amides” (priority 2001, dated 2010).
